Source: patent publication US11787785B2 (NOVARTIS AG, priority 2021, dated 2023)
Like-named read-outs stand apart in the source and are kept apart here.

Assays:
[1] = target: T1, WIZ protein (HiBit-WIZ fusion protein) (Homo sapiens, UniProt O95785+Q96SW2); test: Quantification of WIZ protein levels in HiBit tag fusion protein assay (WIZ HiBit assay in 293T cells); assay type: cell-based; parameters: remaining activity / Dmax: dose or concentration left out as unconfirmed; settings: for Dmax / remaining activity: HEK-293T; for Dmax: read-out: % degradation of WIZ (100 − Amax); for remaining activity: read-out: WIZ Amax; for DC50: WIZ HiBit assay in 293T cells, 10-point, 5-fold dose response, highest concentration 25 μM, about 18 hours, read-out: WIZ AC50
T1 construct: expressed in transfected cells
Method in brief: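 Luminescence after LgBit complementation quantified remaining HiBit-WIZ in lysates of single-copy stable 293T lines. Cells dosed ~18 h at 37 °C with 10-point, 5-fold dilutions (highest 25 μM); DMSO set to 100%, fitted curve gave % remaining at 25 μM (Amax).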

[2] = test system: Fetal Hemoglobin (HbF); test: Small molecule HbF induction assay (mPB CD34+ cells erythroid differentiated, flow cytometry); assay type: cell-based; settings: Homo sapiens, 168 h; for Emax: 7 days with compound, baseline DMSO approximately 30-40%, read-out: HbF Amax (highest percentage of cells staining positive for HbF in the fitted dose-response curve); for EC50: erythroid differentiated in presence of compound for 7 days, flow cytometry
Method: Cryopreserved primary human CD34^+ hematopoietic stem and progenitor cells were obtained from AllCells, LLC. The CD34^+ cells were isolated from the peripheral blood of healthy donors after mobilization by administration of granulocyte colony-stimulating factor. Cells were differentiated ex vivo toward the erythroid lineage using a 2-phase culture method. In the first phase, cells were cultured in StemSpan™ Serum-Free Expansion Media (SFEM) ([…] Technologies Inc.) supplemented with rhSCF (50 ng/mL, Peprotech®, Inc.), rhIL-6 (50 ng/mL, Peprotech®, Inc.), rhIL-3 (50 ng/mL, Peprotech®, Inc.), and rhFlt3L (50 ng/mL, Peprotech®, Inc.), and 1× antibiotic-antimycotic (Life Technologies, Thermo Fisher Scientific) for 6 days at 37° C. with 5% CO2. During the second phase, cells were cultured in erythroid differentiation media at 5,000 cells/mL in the presence of compound for 7 days at 37° C. with 5% CO2. Erythroid Differentiation Media is comprised of IMDM (Life Technologies) supplemented with insulin (10 μg/mL, Sigma Aldrich), heparin (2 U/mL Sigma Aldrich), holo-transferrin (330 μg/mL, Sigma Aldrich), human serum AB (5%, Sigma Aldrich), hydrocortisone (1 μM, […] Technologies), rhSCF (100 ng/mL, Peprotech®, Inc.), rhIL-3 (5 ng/mL, Peprotech®, Inc.), rhEPO (3 U/mL, Peprotech®, Inc.), and 1× antibiotic-antimycotic. All compounds were dissolved and diluted into dimethylsulfoxide (DMSO) and were added to culture media for a final concentration of 0.3% DMSO for testing in a 7-point, 1:3 dilution series starting at 30 uM.
Staining and Flow Cytometry
For viability analysis, samples were washed and resuspended in phosphate-buffered saline (PBS) and stained with LIVE/DEAD™ Fixable Violet Dead Cell Stain Kit (Life Technologies, L34963) for 20 minutes. Cells were then washed again with PBS and resuspended in PBS supplemented with 2% fetal bovine serum (FBS), and 2 mM EDTA to prepare for cell surface marker analysis. Cells were labeled with allophycocyanin-conjugated CD235a (1:100, BD Biosciences, 551336) and Brilliant Violet-conjugated CD71 (1:100, BD Biosciences, 563767) antibodies for 20 minutes. For analysis of cytoplasmic Fetal Hemoglobin (HbF), cells were fixed and permeabilized using the Fixation (BioLegend®, 420801) and Permeabilization Wash (BioLegend®, 421002) Buffers according to the manufacturer's protocol. During the permeabilization step, cells were stained with phycoerythrin-conjugated or FITC-conjugated HbF-specific antibody (1:10-1:25, Invitrogen™, MHFH04-4) for 30 minutes. Stained cells were washed with phosphate-buffered saline before analysis on the FACSCanto™ II flow cytometer or LSRFortessa™ (BD Biosciences). Data analysis was performed with FIowJo™ Software (BD Biosciences).
HbF Induction Activity of Compounds (Table 2)
mPB CD34+ cells were expanded for 6 days, then erythroid differentiated in the presence of compound for 7 days. Cells were fixed, stained and analyzed by flow cytometry. […] HbF Amax=the highest percentage of cells staining positive for HbF (% HbF+ cells) in the fitted dose-response curve. The baseline % HbF+ cells for DMSO-treated cells is approximately 30-40%.

[3] = test system: HbF; settings: ex vivo, human primary erythroid cells; cited from earlier work
[4] = test system: HbF; settings: in vivo; cited from earlier work

T1 sequence (O95785 whole entry, the tested form may be a part): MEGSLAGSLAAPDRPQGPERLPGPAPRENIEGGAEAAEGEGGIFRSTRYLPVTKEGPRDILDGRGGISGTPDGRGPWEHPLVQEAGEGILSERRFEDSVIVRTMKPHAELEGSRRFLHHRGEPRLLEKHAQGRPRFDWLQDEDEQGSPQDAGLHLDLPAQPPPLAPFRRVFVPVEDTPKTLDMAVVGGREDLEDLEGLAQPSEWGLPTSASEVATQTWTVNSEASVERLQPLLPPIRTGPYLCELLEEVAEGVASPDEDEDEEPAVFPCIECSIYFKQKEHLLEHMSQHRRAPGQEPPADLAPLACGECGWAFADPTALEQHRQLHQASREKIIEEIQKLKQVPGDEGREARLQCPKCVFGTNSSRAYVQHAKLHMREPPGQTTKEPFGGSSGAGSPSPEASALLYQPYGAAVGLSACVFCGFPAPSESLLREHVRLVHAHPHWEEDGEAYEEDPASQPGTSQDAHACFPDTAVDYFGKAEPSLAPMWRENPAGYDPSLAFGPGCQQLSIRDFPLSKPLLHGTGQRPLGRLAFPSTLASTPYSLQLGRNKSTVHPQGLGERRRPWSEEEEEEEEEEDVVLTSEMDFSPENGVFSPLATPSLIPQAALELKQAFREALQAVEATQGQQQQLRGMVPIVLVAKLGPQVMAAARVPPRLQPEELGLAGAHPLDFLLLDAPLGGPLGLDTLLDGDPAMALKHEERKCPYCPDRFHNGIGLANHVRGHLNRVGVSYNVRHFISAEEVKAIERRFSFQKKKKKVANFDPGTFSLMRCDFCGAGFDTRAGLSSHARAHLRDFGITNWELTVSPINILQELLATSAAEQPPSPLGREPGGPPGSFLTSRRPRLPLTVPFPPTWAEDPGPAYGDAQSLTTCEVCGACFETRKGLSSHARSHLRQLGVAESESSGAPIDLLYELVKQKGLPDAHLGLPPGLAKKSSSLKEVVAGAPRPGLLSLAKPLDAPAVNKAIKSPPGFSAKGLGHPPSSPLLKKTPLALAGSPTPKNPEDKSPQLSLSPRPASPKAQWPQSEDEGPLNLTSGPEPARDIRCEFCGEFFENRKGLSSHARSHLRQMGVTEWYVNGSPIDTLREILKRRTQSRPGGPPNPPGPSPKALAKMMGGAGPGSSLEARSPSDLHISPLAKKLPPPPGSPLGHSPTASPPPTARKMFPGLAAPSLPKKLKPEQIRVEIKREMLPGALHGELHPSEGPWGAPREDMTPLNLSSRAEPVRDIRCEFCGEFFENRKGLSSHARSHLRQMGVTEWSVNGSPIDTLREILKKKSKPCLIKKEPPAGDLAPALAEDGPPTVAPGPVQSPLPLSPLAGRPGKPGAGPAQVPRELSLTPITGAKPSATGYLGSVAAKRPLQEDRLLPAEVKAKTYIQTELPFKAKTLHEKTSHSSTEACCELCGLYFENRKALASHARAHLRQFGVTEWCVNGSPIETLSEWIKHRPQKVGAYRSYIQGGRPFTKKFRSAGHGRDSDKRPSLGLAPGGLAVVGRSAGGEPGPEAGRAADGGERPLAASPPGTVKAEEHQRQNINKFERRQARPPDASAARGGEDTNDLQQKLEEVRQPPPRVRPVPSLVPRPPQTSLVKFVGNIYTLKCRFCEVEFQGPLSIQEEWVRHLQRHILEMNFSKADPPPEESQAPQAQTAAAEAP
T1 sequence (Q96SW2 whole entry, the tested form may be a part): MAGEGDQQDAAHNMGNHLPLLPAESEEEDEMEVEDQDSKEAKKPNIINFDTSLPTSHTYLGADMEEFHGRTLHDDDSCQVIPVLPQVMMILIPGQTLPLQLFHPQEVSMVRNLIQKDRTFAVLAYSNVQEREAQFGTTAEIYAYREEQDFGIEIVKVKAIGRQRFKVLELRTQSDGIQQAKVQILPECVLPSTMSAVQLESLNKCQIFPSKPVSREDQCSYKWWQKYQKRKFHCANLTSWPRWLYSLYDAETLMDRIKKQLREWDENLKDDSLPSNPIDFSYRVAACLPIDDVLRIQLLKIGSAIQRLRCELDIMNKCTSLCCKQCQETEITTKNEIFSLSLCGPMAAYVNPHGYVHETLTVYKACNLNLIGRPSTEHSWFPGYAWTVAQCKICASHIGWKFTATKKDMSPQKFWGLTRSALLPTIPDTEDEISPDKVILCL
T1 sequence (Q16531 whole entry partner, the tested form may be a part): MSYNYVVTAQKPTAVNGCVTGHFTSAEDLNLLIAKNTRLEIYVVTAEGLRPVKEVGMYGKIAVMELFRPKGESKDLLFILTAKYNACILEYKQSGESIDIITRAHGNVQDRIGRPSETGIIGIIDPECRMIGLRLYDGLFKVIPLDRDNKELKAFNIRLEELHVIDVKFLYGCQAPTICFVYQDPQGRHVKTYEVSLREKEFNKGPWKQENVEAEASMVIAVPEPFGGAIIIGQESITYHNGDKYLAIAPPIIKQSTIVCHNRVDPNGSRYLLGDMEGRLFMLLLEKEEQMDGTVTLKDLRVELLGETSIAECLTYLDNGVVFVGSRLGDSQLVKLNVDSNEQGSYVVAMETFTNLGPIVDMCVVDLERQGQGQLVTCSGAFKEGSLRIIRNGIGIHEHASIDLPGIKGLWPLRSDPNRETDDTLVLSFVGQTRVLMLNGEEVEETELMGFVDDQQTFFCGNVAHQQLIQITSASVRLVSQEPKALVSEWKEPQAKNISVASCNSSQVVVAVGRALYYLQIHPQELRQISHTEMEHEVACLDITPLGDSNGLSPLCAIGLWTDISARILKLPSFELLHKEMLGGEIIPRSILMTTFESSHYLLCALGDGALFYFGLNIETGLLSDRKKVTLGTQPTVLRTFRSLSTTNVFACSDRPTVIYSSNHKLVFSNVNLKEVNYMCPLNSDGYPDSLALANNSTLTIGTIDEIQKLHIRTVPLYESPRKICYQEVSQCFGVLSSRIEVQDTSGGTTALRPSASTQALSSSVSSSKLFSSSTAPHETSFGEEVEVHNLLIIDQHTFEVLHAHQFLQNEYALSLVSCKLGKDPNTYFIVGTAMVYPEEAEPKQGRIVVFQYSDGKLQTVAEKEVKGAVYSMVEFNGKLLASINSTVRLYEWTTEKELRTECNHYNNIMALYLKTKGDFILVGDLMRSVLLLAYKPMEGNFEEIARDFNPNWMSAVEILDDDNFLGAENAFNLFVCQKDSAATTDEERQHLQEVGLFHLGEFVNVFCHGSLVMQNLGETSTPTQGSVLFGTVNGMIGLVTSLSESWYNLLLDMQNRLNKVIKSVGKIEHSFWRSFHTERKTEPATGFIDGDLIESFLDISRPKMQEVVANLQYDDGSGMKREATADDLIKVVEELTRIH

SMILES	Dmax [1] [%]	remaining activity [1] [%]	DC50 [1] [nM]	Emax [2] [%]	EC50 [2] [nM]	HbF induction [3]	HbF induction [4]
CCS(=O)(=O)N1CC[C@@H](Cc2ccn3ncc(N4CCC(=O)NC4=O)c3c2)C[C@@H]1C [Example 283, 1-(5-(((2S,4R)-1-(ethylsulfonyl)-2-methylpiperidin-4-yl)methyl)pyrazolo[1,5-a]pyridin-3-yl)dihydropyrimidine-2,4(1H,3H)-dione]	80	19	29	61	127	–	–
C[C@H]1C[C@H](Cc2ccn3ncc(N4CCC(=O)NC4=O)c3c2)CCN1C(=O)C1CC1 [Example 287, 1-(5-(((2S,4R)-1-(cyclopropanecarbonyl)-2-methylpiperidin-4-yl)methyl)pyrazolo[1,5-a]pyridin-3-yl)dihydropyrimidine-2,4(1H,3H)-dione]	81	19	15	63	60	–	–
Nc1cccc2c1CN(C1CCC(=O)NC1=O)C2=O (centres unmarked) [lenalidomide]	–	–	–	–	–	induce HbF	induce HbF
Nc1cccc2c1C(=O)N(C1CCC(=O)NC1=O)C2=O (centres unmarked) [pomalidomide]	–	–	–	–	–	induce HbF	induce HbF
